Experimental findings from ChEMBL document CHEMBL1777813, “Discovery of novel tetracyclic compounds as anaplastic lymphoma kinase inhibitors” (Bioorg Med Chem Lett, 2011) are described below.

Calls of active or inactive are those of the source. The calls are words filed in the database; no cut-off is given here.

Series [1] is described as follows: Clearance in mouse liver microsomes at 1 uM after 30 mins in presence of NADPH. Type of series: ADME, Microsome.
The nature of series [2]: Clearance in human liver microsomes at 1 uM after 30 mins in presence of NADPH. Type of series: ADME, Microsome.
Series [3] deals with KARPAS-299. In words: cells. To be noted: Homo sapiens, KARPAS-299, 96 h.
Series [4] addresses ALK tyrosine kinase receptor (Homo sapiens, UniProt Q9UM73).
The target in series [5] is Tyrosine-protein kinase ABL1 (Homo sapiens, UniProt P00519). In words: Inhibition of Abl assessed as biotin-EGPWLEEEEEAYGWMDF peptide phosphorylation by TR-FRET assay. Background: In TR-FRET formats the signal depends on donor and acceptor labels being close together.
Another series concerns the target T1, Aurora kinase A (Homo sapiens, UniProt O14965).
T1 sequence (O14965 whole entry): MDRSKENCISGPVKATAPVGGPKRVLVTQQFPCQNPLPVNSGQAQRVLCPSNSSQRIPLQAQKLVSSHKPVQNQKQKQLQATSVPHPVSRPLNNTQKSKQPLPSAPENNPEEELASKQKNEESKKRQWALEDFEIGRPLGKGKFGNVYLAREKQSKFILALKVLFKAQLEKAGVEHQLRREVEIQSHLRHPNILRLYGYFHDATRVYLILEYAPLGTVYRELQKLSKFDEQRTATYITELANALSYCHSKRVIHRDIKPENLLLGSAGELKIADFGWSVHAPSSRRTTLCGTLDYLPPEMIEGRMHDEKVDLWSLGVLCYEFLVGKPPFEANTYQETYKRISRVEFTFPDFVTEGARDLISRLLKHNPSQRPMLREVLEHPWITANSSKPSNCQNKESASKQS
In words: Inhibition of aurora A assessed as FLC-LRRASLG peptide phosphorylation by fluorescence polarization assay.

The target in series [6] is Vascular endothelial growth factor receptor 2 (Homo sapiens, UniProt P35968). Description: Inhibition of KDR assessed as biotin-EGPWLEEEEEAYGWMDF peptide phosphorylation by TR-FRET assay.
The target of series [7] is RAF proto-oncogene serine/threonine-protein kinase (Homo sapiens, UniProt P04049). In words: Inhibition of Raf1 assessed as MEK1/2 phosphorylation by fluorescence polarization assay. Background: Polarisation of emitted light reports the rotation of a fluorescent probe.
Series [8] relates to NCI-H2228. Description: Antitumor activity against human NCI-H2228 cells expressing EML4-ALK xenografted in SCID mouse assessed as reduction of tumor volume administered as po qd for 11 days. Type of series: functional, organism-based.
The target of series [9] is Proto-oncogene tyrosine-protein kinase Src (Homo sapiens, UniProt P12931). In words: Inhibition of Src assessed as biotin-EGPWLEEEEEAYGWMDF peptide phosphorylation by TR-FRET assay.
Series [10] concerns NCI-H2228. Description: Antitumor activity against human NCI-H2228 cells expressing EML4-ALK xenografted in SCID mouse assessed as tumor regression at 0.2 to 20 mg/kg, po qd for 11 days. Type of series: functional, organism-based.
Series [11] has as its target Protein kinase C alpha type (Homo sapiens, UniProt P17252). Description: Inhibition of PKCalpha assessed as FLC-SIYRRGSRRWRKL peptide phosphorylation by fluorescence polarization assay.
In series [12] the test system is Mus musculus. In words: Toxicity in human NCI-H2228 cells expressing EML4-ALK xenografted SCID mouse administered as change in body weight at 0.2 to 20 mg/kg, po qd for 11 days. Type of series: organism-based. More on the design: dose 0.2-20 mg/kg, route oral. To be noted: in vivo, 264 h. For orientation: In xenograft studies the graft and the host belong to different species.

The target in series [13] is T2, Protein kinase C beta type (Homo sapiens, UniProt P05771). In words: Inhibition of PKCbeta1 assessed as FLC-SIYRRGSRRWRKL peptide phosphorylation by fluorescence polarization assay.
The subject of series [14] is Mus musculus. Description: Toxicity in human KARPAS299 cells expressing NPM-ALK xenografted SCID mouse administered as change in body weight at 6 to 60 mg/kg, po qd for 11 days. Type of series: organism-based, KARPAS-299. More on the design: dose 6-60 mg/kg, route oral. To be noted: in vivo, 264 h.
Series [15] deals with KARPAS-299. Description: Antitumor activity against human KARPAS299 cells expressing NPM-ALK xenografted in SCID mouse assessed as tumor regression at 6 to 60 mg/kg, po qd for 11 days. Type of series: functional, organism-based.
Series [16] addresses Insulin-like growth factor 1 receptor (Homo sapiens, UniProt P08069). In words: Inhibition of IGF1R assessed as biotin-EGPWLEEEEEAYGWMDF peptide phosphorylation by TR-FRET assay.
In series [17] the test system is KARPAS-299. In words: Antitumor activity against human KARPAS299 cells expressing NPM-ALK xenografted in SCID mouse assessed as reduction of tumor volume administered as po qd for 11 days. Type of series: functional, organism-based.
For series [18], the target named is T2, Protein kinase C beta type. Description: Inhibition of PKCbeta2 assessed as FLC-SIYRRGSRRWRKL peptide phosphorylation by fluorescence polarization assay.
The target of series [19] is Receptor tyrosine-protein kinase erbB-2 (Homo sapiens, UniProt P04626). In words: Inhibition of HER2 assessed as biotin-HEQEDEPEGDYFEWLEPE peptide phosphorylation by TR-FRET assay.
Series [20] has as its target RAC-alpha serine/threonine-protein kinase (Homo sapiens, UniProt P31749). Description: Inhibition of AKT1 assessed as FI-H1-peptide phosphorylation by fluorescence polarization assay.
Series [21] addresses Epidermal growth factor receptor (Homo sapiens, UniProt P00533). In words: Inhibition of EGFR assessed as biotin-EGPWLEEEEEAYGWMDF peptide phosphorylation by TR-FRET assay.
Series [22] concerns the target Fibroblast growth factor receptor 2 (Homo sapiens, UniProt P21802). In words: Inhibition of FGFR2 assessed as biotin-EGPWLEEEEEAYGWMDF peptide phosphorylation by TR-FRET assay.
The target in series [23] is Mast/stem cell growth factor receptor Kit (Homo sapiens, UniProt P10721). In words: Inhibition of Kit assessed as biotin-HEQEDEPEGDYFEWLEPE peptide phosphorylation by TR-FRET assay.

ALK tyrosine kinase receptor, sequence (Q9UM73 whole entry): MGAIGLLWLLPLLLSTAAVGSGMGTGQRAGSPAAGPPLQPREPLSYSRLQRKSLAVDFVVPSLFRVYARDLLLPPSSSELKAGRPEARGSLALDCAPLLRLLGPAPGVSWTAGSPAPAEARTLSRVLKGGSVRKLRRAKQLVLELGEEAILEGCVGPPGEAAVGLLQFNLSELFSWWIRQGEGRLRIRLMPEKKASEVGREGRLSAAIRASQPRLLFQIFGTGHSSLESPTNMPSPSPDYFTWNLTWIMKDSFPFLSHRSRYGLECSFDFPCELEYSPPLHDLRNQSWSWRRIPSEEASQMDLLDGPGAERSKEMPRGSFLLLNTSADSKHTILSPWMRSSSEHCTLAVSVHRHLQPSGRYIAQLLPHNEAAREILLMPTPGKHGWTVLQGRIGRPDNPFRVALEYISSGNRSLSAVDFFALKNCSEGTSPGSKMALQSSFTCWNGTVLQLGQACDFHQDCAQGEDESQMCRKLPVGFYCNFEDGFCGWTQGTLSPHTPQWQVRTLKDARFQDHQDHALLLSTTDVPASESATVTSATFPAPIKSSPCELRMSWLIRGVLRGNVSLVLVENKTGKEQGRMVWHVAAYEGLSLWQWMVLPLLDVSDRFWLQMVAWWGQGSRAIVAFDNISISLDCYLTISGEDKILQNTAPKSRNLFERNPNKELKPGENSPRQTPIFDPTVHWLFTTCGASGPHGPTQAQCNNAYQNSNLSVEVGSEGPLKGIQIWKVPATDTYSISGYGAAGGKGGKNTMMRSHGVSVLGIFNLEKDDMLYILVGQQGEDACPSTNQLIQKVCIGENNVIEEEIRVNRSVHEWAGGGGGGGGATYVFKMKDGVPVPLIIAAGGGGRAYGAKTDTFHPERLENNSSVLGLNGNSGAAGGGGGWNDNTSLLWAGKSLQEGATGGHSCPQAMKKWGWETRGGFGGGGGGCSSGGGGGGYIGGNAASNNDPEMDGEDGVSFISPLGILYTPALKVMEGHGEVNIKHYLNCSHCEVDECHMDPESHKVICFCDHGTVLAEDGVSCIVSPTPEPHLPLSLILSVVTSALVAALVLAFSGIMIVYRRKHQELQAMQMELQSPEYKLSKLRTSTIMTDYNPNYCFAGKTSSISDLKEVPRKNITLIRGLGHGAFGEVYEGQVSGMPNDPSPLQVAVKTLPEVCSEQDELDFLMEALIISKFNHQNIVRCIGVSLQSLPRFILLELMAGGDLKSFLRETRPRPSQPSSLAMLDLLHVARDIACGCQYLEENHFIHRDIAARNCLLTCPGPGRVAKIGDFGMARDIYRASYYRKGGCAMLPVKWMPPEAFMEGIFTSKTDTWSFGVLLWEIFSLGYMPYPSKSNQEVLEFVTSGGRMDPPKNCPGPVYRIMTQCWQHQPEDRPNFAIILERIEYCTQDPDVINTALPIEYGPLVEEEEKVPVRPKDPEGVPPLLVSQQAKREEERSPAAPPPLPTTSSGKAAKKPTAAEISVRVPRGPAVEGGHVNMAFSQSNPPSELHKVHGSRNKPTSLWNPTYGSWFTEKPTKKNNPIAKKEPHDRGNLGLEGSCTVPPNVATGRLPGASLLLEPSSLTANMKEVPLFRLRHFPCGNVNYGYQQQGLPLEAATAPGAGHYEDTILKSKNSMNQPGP
T2 sequence (P05771 whole entry): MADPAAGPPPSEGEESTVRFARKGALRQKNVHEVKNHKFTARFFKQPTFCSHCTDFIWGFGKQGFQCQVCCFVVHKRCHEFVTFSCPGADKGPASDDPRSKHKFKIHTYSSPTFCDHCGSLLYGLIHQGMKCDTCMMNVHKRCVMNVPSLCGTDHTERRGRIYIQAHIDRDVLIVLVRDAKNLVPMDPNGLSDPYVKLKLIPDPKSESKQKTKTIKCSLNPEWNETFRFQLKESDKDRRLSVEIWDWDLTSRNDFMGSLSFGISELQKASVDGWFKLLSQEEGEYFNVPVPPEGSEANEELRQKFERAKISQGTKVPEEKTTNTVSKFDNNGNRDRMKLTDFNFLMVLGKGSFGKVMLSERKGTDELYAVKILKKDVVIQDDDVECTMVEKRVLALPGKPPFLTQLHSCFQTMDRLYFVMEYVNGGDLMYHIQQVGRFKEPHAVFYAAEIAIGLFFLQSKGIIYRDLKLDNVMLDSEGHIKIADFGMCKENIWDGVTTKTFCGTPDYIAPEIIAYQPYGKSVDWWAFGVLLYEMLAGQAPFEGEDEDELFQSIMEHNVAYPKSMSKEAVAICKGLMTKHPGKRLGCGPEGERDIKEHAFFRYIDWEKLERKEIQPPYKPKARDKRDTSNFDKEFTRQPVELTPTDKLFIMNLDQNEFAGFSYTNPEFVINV
Tyrosine-protein kinase ABL1, sequence (P00519 whole entry): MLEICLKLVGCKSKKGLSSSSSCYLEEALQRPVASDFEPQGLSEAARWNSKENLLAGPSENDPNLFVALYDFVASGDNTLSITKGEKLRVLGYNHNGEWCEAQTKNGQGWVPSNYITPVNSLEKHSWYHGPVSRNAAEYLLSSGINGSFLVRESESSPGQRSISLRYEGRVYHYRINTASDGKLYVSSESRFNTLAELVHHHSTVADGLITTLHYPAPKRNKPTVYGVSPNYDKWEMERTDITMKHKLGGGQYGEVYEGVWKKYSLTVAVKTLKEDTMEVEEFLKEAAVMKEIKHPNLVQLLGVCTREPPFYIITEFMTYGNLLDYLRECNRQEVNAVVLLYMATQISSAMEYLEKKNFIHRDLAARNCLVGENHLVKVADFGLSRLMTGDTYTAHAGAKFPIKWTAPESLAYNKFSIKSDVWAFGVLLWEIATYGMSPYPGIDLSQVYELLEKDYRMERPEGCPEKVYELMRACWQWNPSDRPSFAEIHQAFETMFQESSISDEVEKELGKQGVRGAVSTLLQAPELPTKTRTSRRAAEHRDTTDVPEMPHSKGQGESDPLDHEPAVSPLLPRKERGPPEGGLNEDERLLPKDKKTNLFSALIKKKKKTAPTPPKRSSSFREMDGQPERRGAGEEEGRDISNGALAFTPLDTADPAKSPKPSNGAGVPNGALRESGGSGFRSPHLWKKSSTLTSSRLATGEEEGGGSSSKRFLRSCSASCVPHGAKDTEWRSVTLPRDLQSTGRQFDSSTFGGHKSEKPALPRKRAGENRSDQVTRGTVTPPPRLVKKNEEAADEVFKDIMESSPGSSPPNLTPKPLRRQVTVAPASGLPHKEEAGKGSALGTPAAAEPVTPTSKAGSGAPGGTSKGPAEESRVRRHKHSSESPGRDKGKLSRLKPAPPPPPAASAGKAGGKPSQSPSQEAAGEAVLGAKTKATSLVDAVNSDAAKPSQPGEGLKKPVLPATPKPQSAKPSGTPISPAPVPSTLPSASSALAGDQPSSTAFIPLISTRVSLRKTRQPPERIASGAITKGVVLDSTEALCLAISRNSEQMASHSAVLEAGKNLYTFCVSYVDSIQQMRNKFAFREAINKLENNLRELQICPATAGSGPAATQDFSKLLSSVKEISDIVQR
Proto-oncogene tyrosine-protein kinase Src, sequence (P12931 2-536 limits assumed): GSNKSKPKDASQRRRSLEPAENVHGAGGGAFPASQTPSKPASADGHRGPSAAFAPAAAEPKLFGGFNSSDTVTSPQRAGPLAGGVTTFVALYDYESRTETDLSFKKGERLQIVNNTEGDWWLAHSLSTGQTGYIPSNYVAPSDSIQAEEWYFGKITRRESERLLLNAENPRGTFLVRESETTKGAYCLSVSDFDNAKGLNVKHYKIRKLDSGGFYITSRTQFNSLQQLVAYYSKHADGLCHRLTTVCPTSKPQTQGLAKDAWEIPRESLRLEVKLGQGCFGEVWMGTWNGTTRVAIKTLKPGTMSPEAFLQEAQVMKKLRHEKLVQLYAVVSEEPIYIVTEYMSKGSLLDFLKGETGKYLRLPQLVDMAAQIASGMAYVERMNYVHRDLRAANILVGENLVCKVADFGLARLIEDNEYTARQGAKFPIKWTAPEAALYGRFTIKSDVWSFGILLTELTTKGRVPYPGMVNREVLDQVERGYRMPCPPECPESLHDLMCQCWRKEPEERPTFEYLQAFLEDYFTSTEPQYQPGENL
RAF proto-oncogene serine/threonine-protein kinase, sequence (P04049 whole entry): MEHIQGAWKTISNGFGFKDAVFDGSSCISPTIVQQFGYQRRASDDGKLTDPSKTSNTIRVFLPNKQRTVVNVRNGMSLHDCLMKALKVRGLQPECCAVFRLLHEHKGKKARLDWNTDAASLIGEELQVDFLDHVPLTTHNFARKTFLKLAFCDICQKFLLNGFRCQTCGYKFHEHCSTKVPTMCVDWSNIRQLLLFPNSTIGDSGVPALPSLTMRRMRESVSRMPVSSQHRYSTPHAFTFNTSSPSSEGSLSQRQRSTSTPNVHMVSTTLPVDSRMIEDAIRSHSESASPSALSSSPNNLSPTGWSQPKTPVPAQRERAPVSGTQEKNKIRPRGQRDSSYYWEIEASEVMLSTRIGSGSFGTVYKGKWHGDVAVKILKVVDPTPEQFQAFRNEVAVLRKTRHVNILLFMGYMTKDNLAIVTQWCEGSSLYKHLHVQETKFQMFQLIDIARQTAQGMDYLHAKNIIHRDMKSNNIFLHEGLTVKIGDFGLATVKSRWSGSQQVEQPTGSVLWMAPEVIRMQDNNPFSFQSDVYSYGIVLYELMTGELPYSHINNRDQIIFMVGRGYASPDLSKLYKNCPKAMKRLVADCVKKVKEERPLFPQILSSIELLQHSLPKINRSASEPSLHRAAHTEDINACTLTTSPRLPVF
RAC-alpha serine/threonine-protein kinase, sequence (P31749 whole entry): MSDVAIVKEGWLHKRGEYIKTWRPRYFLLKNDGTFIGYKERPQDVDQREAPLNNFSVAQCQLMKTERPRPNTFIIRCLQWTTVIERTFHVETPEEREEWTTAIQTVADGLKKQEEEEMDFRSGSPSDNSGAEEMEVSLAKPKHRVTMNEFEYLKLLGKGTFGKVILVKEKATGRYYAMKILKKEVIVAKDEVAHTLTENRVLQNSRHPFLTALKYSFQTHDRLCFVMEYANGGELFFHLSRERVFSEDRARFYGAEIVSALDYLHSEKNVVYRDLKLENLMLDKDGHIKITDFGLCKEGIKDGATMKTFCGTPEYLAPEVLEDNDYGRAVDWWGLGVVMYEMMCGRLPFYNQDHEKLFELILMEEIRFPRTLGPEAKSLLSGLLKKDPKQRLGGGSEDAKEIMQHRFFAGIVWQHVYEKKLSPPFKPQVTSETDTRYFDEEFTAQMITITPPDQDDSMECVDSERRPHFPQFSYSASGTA

Broadly, the microsomal CLint is the rate of metabolic loss divided by the concentration. As usually defined, the IC50 is the midpoint of a concentration-inhibition curve. Consider `CC1(C)c2cc(N3CCC(O)CC3)ccc2C(=O)c2c1[nH]c1cc(C#N)ccc21`, for which the microsomal CLint at 1 µM in series [1] is 24.6 µL/min/mg; in series [2], 7.1 µL/min/mg. Also, the IC50 in the series on KARPAS-299 [3] was determined as 115 nM; in series [4] it was 11.4 nM.
In turn, `CCN(CC)CCOc1ccc2c(c1)C(C)(C)c1oc3cc(Br)ccc3c1C2=O` registered an IC50 in series [4] of 770 nM.
As to `CC1(C)c2cc(OCCNC(N)=O)ccc2C(=O)c2c1[nH]c1cc(C#N)ccc21`, the microsomal CLint at 1 µM in series [1] is 6.8 µL/min/mg; in [2], 4 µL/min/mg. The same compound returned an IC50 in the series on KARPAS-299 [3] of 2310 nM.
Compound `CCN(CC)CCOc1ccc2c(c1)C(C)(C)c1oc3cc(C(F)(F)F)ccc3c1C2=O` displayed an IC50 in series [4] of 3470 nM.
For the compound `CCCOc1ccc2c3c(oc2c1)C(C)(C)c1cc(OCCN(CC)CC)ccc1C3=O`, in series [4], the IC50 is 2470 nM.
Consider `CCN(CC)CCOc1ccc2c(c1)C(C)(C)c1[nH]c3cc([N+](=O)[O-])ccc3c1C2=O`, for which the midpoint of inhibition in the series on KARPAS-299 [3], the IC50, lay at 570 nM.
Regarding `CC1(C)c2cc(OCCN3CCS(=O)(=O)CC3)ccc2C(=O)c2c1[nH]c1cc(C#N)ccc21`, the microsomal CLint at 1 µM was found to be 24.9 µL/min/mg in series [1] and 67 µL/min/mg in series [2]. For the same compound, the IC50 in the series on KARPAS-299 [3] stood at 87.5 nM; in [4], 3.7 nM.
Compound `CCN(CC)CCOc1ccc2c(c1)C(C)(C)c1[nH]c3cc(Br)ccc3c1C2=O` registered an IC50 in the series on KARPAS-299 [3] of 680 nM.
Consider `CC1(C)c2cc(N3CCOCC3)ccc2C(=O)c2c1[nH]c1cc(C#N)ccc21`, for which the microsomal CLint at 1 µM in [1] came to 8.1 µL/min/mg; in series [2] it was 33.6 µL/min/mg. Also, the IC50 in the series with KARPAS-299 [3] is 134 nM; in series [4], 18.5 nM.
In the case of `CC1(C)c2cc(N3CCN(C4COC4)CC3)ccc2C(=O)c2c1[nH]c1cc(C#N)ccc21`, the microsomal CLint at 1 µM in [1] worked out at 15.1 µL/min/mg; in series [2], 9.6 µL/min/mg. Further, the figures for the IC50 (in the series on KARPAS-299 [3]; in [4]) were 47.9 nM and 27 nM, respectively.
With `CCN(CC)CCOc1ccc2c(c1)C(C)(C)c1[nH]c3cc(C#N)ccc3c1C2=O`, the values for the microsomal CLint at 1 µM in [1] and in [2] were 51.4 µL/min/mg and 54.5 µL/min/mg, respectively. The compound further returned an IC50 with KARPAS-299 [3] of 60 nM.
In the series on KARPAS-299 [3], `CCN(CC)CCOc1ccc2c(c1)C(C)(C)c1[nH]c3cc(Cl)ccc3c1C2=O` displayed an IC50 of 490 nM.
As for `CC1(C)c2cc(N3CCCCC3)ccc2C(=O)c2c1[nH]c1cc(C#N)ccc21`, the microsomal CLint at 1 µM came out at 58.9 µL/min/mg in series [1] and 39.5 µL/min/mg in series [2]. The IC50 in the series with KARPAS-299 [3] came to 331 nM; in series [4], 33.4 nM.
With `CC(C)N1CCN(c2ccc3c(c2)C(C)(C)c2[nH]c4cc(C#N)ccc4c2C3=O)CC1`, the values for the microsomal CLint at 1 µM in series [1] and in series [2] were 23.1 µL/min/mg and 82.7 µL/min/mg, respectively.
`CCN(CC)CCOc1ccc2c(c1)C(C)(C)c1oc3cc(Cl)ccc3c1C2=O` returned an IC50 in series [4] of 660 nM.
Take `CC1(C)c2cc(C3CCN(C4COC4)CC3)ccc2C(=O)c2c1[nH]c1cc(C#N)ccc21`: the IC50 in series [5] is 370 nM; at Aurora kinase A, > 50000 nM; in series [6] it was 100 nM; in [7] it was > 50000 nM; in series [9], 250 nM; in [11] it was > 50000 nM. Moreover, the IC50 in series [13] is > 50000 nM; in [16], 1000 nM; in series [18], > 50000 nM; in [19], > 50000 nM; in series [20], > 50000 nM; in series [21], > 50000 nM. The IC50 was 360 nM in series [22] and > 50000 nM in [23]. Also, the Activity entry in the series on NCI-H2228 [8] is “Dose-dependent effect”; with Mus musculus [12] it was “Non-toxic”; in the series on Mus musculus [14] it was “Non-toxic”; in the series with KARPAS-299 [17], “Dose-dependent effect”. Also, the result in the series with NCI-H2228 [10] and in the series with KARPAS-299 [15] was Active. The microsomal CLint at 1 µM in series [1] was found to be 10.4 µL/min/mg; in [2], 10.2 µL/min/mg.
As to `CC(=O)NCCOc1ccc2c(c1)C(C)(C)c1[nH]c3cc(C#N)ccc3c1C2=O`, the microsomal CLint at 1 µM was determined as 14.1 µL/min/mg in [1] and 4.2 µL/min/mg in [2]. Further, the half-maximal inhibitory concentration (IC50) in the series on KARPAS-299 [3] is 397 nM; in series [4], 11.6 nM.
For `CC1(C)c2cc(N3CCN(S(C)(=O)=O)CC3)ccc2C(=O)c2c1[nH]c1cc(C#N)ccc21`, the microsomal CLint at 1 µM came to 15.8 µL/min/mg in series [1] and 19.2 µL/min/mg in [2]. Besides, the results for the half-maximal inhibitory concentration (IC50) (in the series with KARPAS-299 [3]; in series [4]) were 263 nM and 37.4 nM, respectively.
